Results on 35 compounds are retold here after ChEMBL document CHEMBL1146879, “Novel benzimidazole-based MCH R1 antagonists” (Bioorg Med Chem Lett, 2006).

Data set [1] has as its target Melanin-concentrating hormone receptor 1 (Homo sapiens, UniProt Q99705). The data set can be described thus: Antagonist activity against MCH1R expressed in CHO cells assessed as inhibition of MCH-induced EC80 […] response by luciferase reporter gene assay. It is filed as functional, cell-based.
Data set [2] can be described thus: Bioavailability in rat at 3 mg/kg, iv and 5 to 10 mg/kg, po. The class given is ADME, organism-based. Conditions: in vivo.
Data set [3] can be described thus: Half life in mouse. The conditions noted are these: in vivo. The class given is ADME, organism-based.
Data set [4] deals with Mus musculus. The data set can be described thus: Decrease in body weight of AKR/J DIO mouse relative to control after 15 days at 10 mg/kg, po. It is filed as functional. Set-up: scale not given: the % may be the effect or the level left.
A short description of data set [5]: Bioavailability in mouse at 1.6 mg/kg, iv and 5.2 mg/kg, po. The class given is ADME, organism-based. Conditions: in vivo.
The subject of data set [6] is Mus musculus. Nature of the data set: Decrease in body weight of AKR/J DIO mouse relative to control after 15 days at 3 mg/kg, po. The class given is functional. Set-up: scale not given: the % may be the effect or the level left.
Data set [7] has as its system Mus musculus. The data set can be described thus: Decrease in body weight of AKR/J DIO mouse relative to control after 15 days at 1 mg/kg, po. It is filed as functional. Set-up: scale not given: the % may be the effect or the level left.
Data set [8] has as its system Mus musculus. Nature of the data set: Decrease in body weight of AKR/J DIO mouse relative to control after 15 days at 0.3 mg/kg, po. The class given is functional. Set-up: scale not given: the % may be the effect or the level left.
Data set [9] is described as follows: Ratio of drug level in brain against plasma in mouse. The class given is ADME, organism-based. The conditions noted are these: brain and plasma, read-out: BPR.

Chain of Melanin-concentrating hormone receptor 1 (Q99705 whole entry): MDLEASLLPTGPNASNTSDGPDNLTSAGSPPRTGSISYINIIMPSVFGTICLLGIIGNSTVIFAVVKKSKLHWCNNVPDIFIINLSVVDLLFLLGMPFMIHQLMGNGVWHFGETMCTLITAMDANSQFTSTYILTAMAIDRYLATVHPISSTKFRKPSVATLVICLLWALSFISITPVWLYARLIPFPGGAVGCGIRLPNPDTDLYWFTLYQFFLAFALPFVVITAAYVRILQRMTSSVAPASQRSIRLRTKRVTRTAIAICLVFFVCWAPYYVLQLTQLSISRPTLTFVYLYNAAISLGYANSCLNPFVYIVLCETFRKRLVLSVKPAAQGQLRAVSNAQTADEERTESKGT

One may read the IC50 as the midpoint of a concentration-inhibition curve. Usually bioavailability stands for dose-corrected exposure relative to a reference, in per cent. Consider `COc1ccc(-n2c(N(C)C)nc3cc(-n4cnc5cc(-c6ccc(Cl)cc6)sc5c4=O)ccc32)cc1`, for which the concentration for half-maximal inhibition (IC50) in data set [1] was 10 nM. The compound further showed a bioavailability in data set [2] of 16%. Turning to `Cc1nc2cc(-n3cnc4cc(-c5ccc(Cl)cc5)sc4c3=O)ccc2n1CCCO`, the IC50 in [1] was 1.58 nM. In data set [2], this compound registered a bioavailability of at least 100%. `COc1ccc(Cn2c(N(C)C)nc3cc(-n4cnc5cc(-c6ccc(Cl)cc6)sc5c4=O)ccc32)cc1`: the IC50 in data set [1] was 12.6 nM. Still for that read-out and setting: under `COCCNc1nc2cc(-n3cnc4cc(-c5ccc(Cl)cc5)sc4c3=O)ccc2[nH]1` stands 31.6 nM. With `CNc1nc2cc(-n3cnc4cc(-c5ccc(Cl)cc5)sc4c3=O)ccc2[nH]1`, the IC50 in [1] was 3.98 nM. In data set [2], the bioavailability stood at 0%. As to `CC(C)Nc1nc2cc(-n3cnc4cc(-c5ccc(Cl)cc5)sc4c3=O)ccc2[nH]1`, the IC50 in data set [1] is 7.94 nM.

For the compound `CCOc1ccc(-n2c(C)nc3cc(-n4cnc5cc(-c6ccc(Cl)cc6)sc5c4=O)ccc32)cc1`, the IC50 in data set [1] was 3.16 nM. Take `CN(C)c1nc2cc(-n3cnc4cc(-c5ccc(Cl)cc5)sc4c3=O)ccc2[nH]1`: in [1], the IC50 was 2.51 nM. In data set [2], this compound had a bioavailability of 4%. Take `Cc1ccc(-n2c(C)nc3cc(-n4cnc5cc(-c6ccc(Cl)cc6)sc5c4=O)ccc32)cc1`: the IC50 in data set [1] was 20 nM. `Cn1c(N2CCCC2)nc2ccc(-n3cnc4cc(-c5ccc(Cl)cc5)sc4c3=O)cc21`: the IC50 in data set [1] is 6.31 nM. The bioavailability in [2] was at least 100%. On to `Cc1nc2cc(-n3cnc4cc(-c5ccc(Cl)cc5)sc4c3=O)ccc2n1-c1ccc(N(C)C)cc1`, for which the IC50 in data set [1] is 5.01 nM. On to `COc1ccc(-n2c(C)nc3cc(-n4cnc5cc(-c6ccc(Cl)cc6)sc5c4=O)ccc32)cc1`, for which the IC50 in data set [1] was 5.01 nM. Further, the bioavailability in [2] is 3%. In the case of `Cc1nc2cc(-n3cnc4cc(-c5ccc(Cl)cc5)sc4c3=O)ccc2n1C1CCCCC1`, in [1], the IC50 is 6.31 nM. The bioavailability in [2] came out at 0%. Turning to `COCCCn1c(C)nc2cc(-n3cnc4cc(-c5ccc(Cl)cc5)sc4c3=O)ccc21`, in [1], the IC50 is 5.01 nM. The compound also returned a bioavailability in [2] of 40%. Turning to `Cc1nc2cc(-n3cnc4cc(-c5ccc(Cl)cc5)sc4c3=O)ccc2n1-c1ccc(OC(C)C)cc1`, the IC50 in data set [1] was 7.94 nM.

By half-life is commonly meant the time needed for the level to fall by half in the phase considered. `CN(C)c1nc2ccc(-n3cnc4cc(-c5ccc(Cl)cc5)sc4c3=O)cc2n1C`: in [1], the IC50 is 1.58 nM. This compound had a half-life in data set [3] of 6 h. In addition, the Activity in data set [4] was -10%; in data set [6], -5.1%; in data set [7], -2.1%; in [8], -1.6%. In addition, the bioavailability in data set [5] is over 90%; in data set [2], at least 100%. Besides, the Kp in data set [9] stood at 2.6. Regarding `O=c1c2sc(-c3ccc(Cl)cc3)cc2ncn1-c1ccc2[nH]c(N3CCCC3)nc2c1`, the half-maximal inhibitory concentration (IC50) in [1] was 3.16 nM. This compound returned a bioavailability in data set [2] of 76%. As for `O=c1c2sc(-c3ccc(Cl)cc3)cc2ncn1-c1ccc2[nH]c(NC3CC3)nc2c1`, the IC50 in data set [1] is 15.8 nM. With `CN(C)c1nc2cc(-n3cnc4cc(-c5ccc(Cl)cc5)sc4c3=O)ccc2n1CCO`, the IC50 in data set [1] was 10 nM. The compound further gave a bioavailability in [2] of 59%.

`CN1CCN(c2nc3cc(-n4cnc5cc(-c6ccc(Cl)cc6)sc5c4=O)ccc3[nH]2)CC1`: the IC50 in data set [1] is 100 nM.

Take `CN(C)c1nc2ccc(-n3cnc4cc(-c5ccc(Cl)cc5)sc4c3=O)cc2n1CCO`: the IC50 in [1] is 12.6 nM. Further, the bioavailability in [2] was found to be 55%. For the compound `CN(CCN1CCCC1)c1nc2cc(-n3cnc4cc(-c5ccc(Cl)cc5)sc4c3=O)ccc2[nH]1`, the IC50 in data set [1] was 5.01 nM. In [2], this compound gave a bioavailability of 0%. Take `CCCn1c(N(C)C)nc2ccc(-n3cnc4cc(-c5ccc(Cl)cc5)sc4c3=O)cc21`: in data set [1], the IC50 was 5.01 nM. Besides, the bioavailability in data set [2] amounted to 21%.

Turning to `Cc1nc2cc(-n3cnc4cc(-c5ccc(Cl)cc5)sc4c3=O)ccc2n1CCN1CCOCC1`, the IC50 in data set [1] is 6.31 nM. The compound also had a bioavailability in data set [2] of 24%. In the same order, the values of `Cc1nc2cc(-n3cnc4cc(-c5ccc(Cl)cc5)sc4c3=O)ccc2n1CCN1CCCC1` are 2 nM and 31%.

For the compound `CN(C)c1nc2cc(-n3cnc4cc(-c5ccc(Cl)cc5)sc4c3=O)ccc2n1C`, the IC50 in [1] is 6.31 nM. Consider `O=c1c2sc(-c3ccc(Cl)cc3)cc2ncn1-c1ccc2[nH]c(NCCN3CCCC3)nc2c1`, for which the half-maximal inhibitory concentration (IC50) in data set [1] is 6.31 nM. The compound also yielded a bioavailability in [2] of 0%. In the same order, the values of `CCCn1c(N(C)C)nc2cc(-n3cnc4cc(-c5ccc(Cl)cc5)sc4c3=O)ccc21` are 5.01 nM and 30%. As to `Cn1c(N2CCCC2)nc2cc(-n3cnc4cc(-c5ccc(Cl)cc5)sc4c3=O)ccc21`, the half-maximal inhibitory concentration (IC50) in data set [1] was 25.1 nM.

`Cc1nc2cc(-n3cnc4cc(-c5ccc(Cl)cc5)sc4c3=O)ccc2[nH]1`: the IC50 in data set [1] was 25.1 nM.

As for `COc1ccc(Cn2c(N(C)C)nc3ccc(-n4cnc5cc(-c6ccc(Cl)cc6)sc5c4=O)cc32)cc1`, the half-inhibitory concentration (IC50) in [1] was 2510 nM. Still for that read-out and setting: to `Cc1nc2cc(-n3cnc4cc(-c5ccc(Cl)cc5)sc4c3=O)ccc2n1-c1ccccc1` belongs 31.6 nM. As to `O=c1c2sc(-c3ccc(Cl)cc3)cc2ncn1-c1ccc2[nH]c(N3CCCCC3)nc2c1`, the IC50 in data set [1] is 5.01 nM. The bioavailability in data set [2] was found to be 31%. Take `O=c1c2sc(-c3ccc(Cl)cc3)cc2ncn1-c1ccc2[nH]c(N3CCOCC3)nc2c1`: the IC50 in data set [1] is 15.8 nM. Same read-out and setting: to `Nc1nc2cc(-n3cnc4cc(-c5ccc(Cl)cc5)sc4c3=O)ccc2[nH]1` belongs 31.6 nM.
